Laboratory results from PubChem BioAssay (NCI).
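Method: 48-hour compound exposure of cells in 96-well plates, five concentrations, linear interpolation of endpoints. TGI: total growth inhibition.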

Assays:
Test in all cases: NCI tumour cell line growth inhibition, 48 h
786-0 renal = tested on: 786-0 renal
A549 NSCLC = tested on: A549 NSCLC
BT-549 breast = tested on: BT-549 breast
CAKI-1 renal = tested on: CAKI-1 renal
HCT-15 colon = tested on: HCT-15 colon
MALME-3M melanoma = tested on: MALME-3M melanoma
MDA-MB-435 = tested on: MDA-MB-435
NCI-H226 lung = tested on: NCI-H226 lung
NCI-H460 lung = tested on: NCI-H460 lung
SF-268 CNS = tested on: SF-268 CNS
SF-295 CNS = tested on: SF-295 CNS

Row | Compound | TGI (786-0 renal) [µM] | TGI (A549 NSCLC) [µM] | TGI (BT-549 breast) [µM] | TGI (CAKI-1 renal) [µM] | TGI (HCT-15 colon) [µM] | TGI (MALME-3M melanoma) [µM] | TGI (MDA-MB-435) [µM] | TGI (NCI-H226 lung) [µM] | TGI (NCI-H460 lung) [µM] | TGI (SF-268 CNS) [µM] | TGI (SF-295 CNS) [µM]
1 | COc1ncc(C#CC(=O)c2ccccc2OC)c(OC)n1 | 3.69 | 19 | 5.21 | 4.17 | 2.08 | 3.36 | 8.44 | 3.35 | 15.7 | 12.2 | 39.7
2 | O=C1NC(N/N=C/C(O)C(O)C(O)C(O)CO)=N/C1=C\c1cccs1 (centres undefined) | > 100 | > 100 | > 100 | > 100 | > 100 | > 100 | > 100 | > 100 | > 100 | > 100 | > 100
3 | NNC(=O)CCCCCCCC(=O)O | > 100 | > 100 | > 100 | > 100 | > 100 | > 100 | > 100 | > 100 | > 100 | – | > 100
4 | C=CCOc1ccc(C2c3c([nH][nH]c3=O)CC(C)(O)C2C(=O)OC)cc1OC (centres undefined) | > 100 | > 100 | > 100 | > 100 | > 100 | > 100 | > 100 | – | > 100 | > 100 | > 100
5 | C=C(Br)C(Cl)(CBr)CCC(Br)C(C)(C)Cl (centres undefined) | > 10 | > 10 | > 10 | > 10 | – | – | > 10 | > 10 | – | > 10 | > 10
6 | C=C1CC(CNc2cc(Cl)nc(N)n2)C1 | > 100 | > 100 | > 100 | > 100 | > 100 | > 100 | > 100 | > 100 | > 100 | > 100 | > 100
7 | COC(=O)CC1(O)C(C=C(C)C)C(C(=O)OC)C(=O)C(C(=O)OC)C1C(=O)OC (centres undefined) | > 100 | > 100 | > 100 | > 100 | > 100 | > 100 | > 100 | > 100 | > 100 | > 100 | > 100
8 | FC(F)(F)C1(C(F)(F)F)OC(Cl)(Cl)C(Cl)(Cl)O1 | > 10 | > 10 | > 10 | > 10 | > 10 | > 10 | > 10 | > 10 | > 10 | > 10 | > 10
9 | C/C=C/[C@@H]1O[C@H](CC#C[Si](C)(C)C)[C@@]2(C=O)C(C)=CC[C@H](C(C)C)[C@@H]12 | 31.3 | 64.5 | 49.7 | 5.13 | 48.5 | 37.2 | 42.5 | 41.7 | 39.8 | 52.3 | 67.3
10 | O=C(CN=C(CN(c1ccccc1)c1ccccc1)Oc1c([N+](=O)[O-])cc([N+](=O)[O-])cc1[N+](=O)[O-])N1CCNCC1 | > 100 | > 100 | > 100 | – | > 100 | > 100 | > 100 | > 100 | > 100 | > 100 | > 100
